Data on 28 compounds can be found in patent US10954232B2, “Pyrazole derivative as ALK5 inhibitor and uses thereof” (HANMI PHARMACEUTICAL CO., LTD., priority 2016, dated 2021).

Each structure is given as a SMILES string. A value given as a limit tells only on which side of the number the result lay.

The target in this assay is T1, ALK5 kinase (Homo sapiens, UniProt P36897).
T1 construct: GST; purchased Thermo Fisher Scientific Solutions
T1 sequence (P36897 34-503): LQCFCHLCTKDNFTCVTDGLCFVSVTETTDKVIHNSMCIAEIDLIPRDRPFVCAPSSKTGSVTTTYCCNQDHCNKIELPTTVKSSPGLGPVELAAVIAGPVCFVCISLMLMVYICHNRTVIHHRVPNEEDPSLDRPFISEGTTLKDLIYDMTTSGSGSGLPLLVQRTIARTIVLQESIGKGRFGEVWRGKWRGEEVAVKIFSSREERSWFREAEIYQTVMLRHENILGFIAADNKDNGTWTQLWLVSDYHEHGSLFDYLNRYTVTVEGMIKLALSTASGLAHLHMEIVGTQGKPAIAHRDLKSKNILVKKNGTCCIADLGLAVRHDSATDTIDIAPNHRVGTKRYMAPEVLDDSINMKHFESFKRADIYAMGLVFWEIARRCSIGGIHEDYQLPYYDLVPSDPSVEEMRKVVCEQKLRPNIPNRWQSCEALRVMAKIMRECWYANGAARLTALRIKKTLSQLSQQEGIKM
Description: Activity inhibition test on ALK5 enzyme (LanthaScreen Eu binding kinase assay). The conditions noted are these: kinase tracer 178, 60 minutes at room temperature. The procedure:
For each of the compounds obtained in Examples 1 to 227, inhibitory activity against ALK5 kinase was measured.
For this, a LanthaScreen Eu binding kinase assay method was used, and ALK5 kinase, a kinase buffer, a kinase tracer 178, and a LanthaScreen Eu-GST binding antibody were all purchased from Thermo Fisher Scientific Solutions. Each of the compounds was made into a 10 mM DMSO solution, and diluted by 1/10 to a concentration of 1 μM to 0.0001 μM with an aqueous solution containing 4% DMSO. The test was performed in 384 well plates (well polystyrene low volume round-bottomed plates). First, 5 μL of the diluted compound solution was added, then 5 μL of the kinase/antibody mixture solution was introduced thereto, and 5 μL of the tracer was introduced thereto. Herein, these were added to each well so that the final kinase concentration became 5 nM, the final Eu-GST binding antibody concentration 2 nM, and the kinase tracer 178 concentration 10 nM, and the result was reacted in a stirrer for 60 minutes at room temperature. Then a fluorescence value was measured using a fluorescence meter (molecular device) ([…], 665 nm emission filter). Herein, as for the degree of compound activity to inhibit the kinase reaction, a phosphorylate rate was calculated from 0% to 100% with respect to a control group according to the protocol included in the kit, and a 50% inhibitory concentration (IC50) value was calculated by obtaining the x-axis concentration in the region where 50% activity was inhibited.
For orientation: Time-resolved FRET reads energy transfer from a long-lived donor to a nearby acceptor.

For orientation: IC50 means the midpoint of a concentration-inhibition curve. In turn, `Cc1cccc(-n2nc(C(=O)Nc3ccc(S(=O)(=O)O)cc3)cc2-c2ccc3ncsc3c2)n1` [Example 56, 4-(5-(benzo[d]thiazol-6-yl)-1-(6-methylpyridin-2-yl)-1H-pyrazole-3-carboxyamido)benzenesulfonic acid] registered an IC50 of 2.4 nM. The value for `Cc1cccc(-n2nc(C(=O)Nc3ccc(S(=O)(=O)C(F)(F)F)cc3)cc2-c2ccc3ncsc3c2)n1` [Example 57, 5-(benzo[d]thiazol-6-yl)-1-(6-methylpyridin-2-yl)-N-(4-((trifluoromethyl)sulfonyl)phenyl)-1H-pyrazole-3-carboxyamide] was 45 nM. The same measure for `Cc1cccc(-n2nc(C(=O)Nc3ccc(S(=O)(=O)NCC(F)(F)F)cc3)cc2-c2ccc3ncsc3c2)n1` [Example 58, 5-(benzo[d]thiazol-6-yl)-1-(6-methylpyridin-2-yl)-N-(4-(N-(2,2,2-trifluoroethyl)sulfamoyl)phenyl)-1H-pyrazole-3-carboxyamide]: 5.6 nM; for `Cc1cccc(-n2nc(C(=O)Nc3ccc(CS(C)(=O)=O)cc3)cc2-c2ccc3ncsc3c2)n1` [Example 59, 5-(benzo[d]thiazol-6-yl)-1-(6-methylpyridin-2-yl)-N-(4-((methylsulfonyl)methyl)phenyl)-1H-pyrazole-3-carboxyamide]: 20 nM; for `Cc1cccc(-n2nc(C(=O)Nc3cccc(CS(N)(=O)=O)c3)cc2-c2ccc3ncsc3c2)n1` [Example 60, 5-(benzo[d]thiazol-6-yl)-1-(6-methylpyridin-2-yl)-N-(3-(sulfamoylmethyl)phenyl)-1H-pyrazole-3-carboxyamide]: 13 nM.

`Cc1cccc(-n2nc(C(=O)Nc3ccc(CS(N)(=O)=O)cc3)cc2-c2ccc3ncsc3c2)n1` [Example 61, 5-(benzo[d]thiazol-6-yl)-1-(6-methylpyridin-2-yl)-N-(4-(sulfamoylmethyl)phenyl)-1H-pyrazole-3-carboxyamide] yielded an IC50 of 10 to 100 nM. The same measure for `Cc1cccc(-n2nc(C(=O)Nc3ccc(F)c(CS(N)(=O)=O)c3)cc2-c2ccc3ncsc3c2)n1` [Example 62, 5-(benzo[d]thiazol-6-yl)-N-(4-fluoro-3-(sulfamoylmethyl)phenyl)-1-(6-methylpyridin-2-yl)-1H-pyrazole-3-carboxyamide]: 16 nM; for `Cc1cccc(-n2nc(C(=O)Nc3ccc(NC4CCS(=O)(=O)C4)cc3)cc2-c2ccc3ncsc3c2)n1` (stereo not shown) [Example 63, 5-(benzo[d]thiazol-6-yl)-N-(4-((1,1-dioxidotetrahydrothiophen-3-yl)amino)phenyl)-1-(6-methylpyridin-2-yl)-1H-pyrazole-3-carboxyamide]: 3.7 nM. The value for `Cc1cccc(-n2nc(C(=O)Nc3ccncc3)cc2-c2ccc3ncsc3c2)n1` [Example 64, 5-(benzo[d]thiazol-6-yl)-1-(6-methylpyridin-2-yl)-N-(pyridin-4-yl)-1H-pyrazole-3-carboxyamide] was less than 10 nM; that for `COc1ccc(NC(=O)c2cc(-c3ccc4ncsc4c3)n(-c3cccc(C)n3)n2)cn1` [Example 65, 5-(benzo[d]thiazol-6-yl)-N-(6-methoxypyridin-3-yl)-1-(6-methylpyridin-2-yl)-1H-pyrazole-3-carboxyamide] was less than 10 nM; that for `COc1cc(NC(=O)c2cc(-c3ccc4ncsc4c3)n(-c3cccc(C)n3)n2)ccn1` [Example 66, 5-(benzo[d]thiazol-6-yl)-N-(2-methoxypyridin-4-yl)-1-(6-methylpyridin-2-yl)-1H-pyrazole-3-carboxyamide] was 3.2 nM. As to `CSc1ccc(NC(=O)c2cc(-c3ccc4ncsc4c3)n(-c3cccc(C)n3)n2)cn1` [Example 67, 5-(benzo[d]thiazol-6-yl)-N-(6-(methylthio)pyridin-3-yl)-1-(6-methylpyridin-2-yl)-1H-pyrazole-3-carboxyamide], the concentration for half-maximal inhibition (IC50) came out at 9.6 nM. `Cc1cccc(-n2nc(C(=O)Nc3cccc(S(C)(=O)=O)n3)cc2-c2ccc3ncsc3c2)n1` [Example 68, 5-(benzo[d]thiazol-6-yl)-1-(6-methylpyridin-2-yl)-N-(6-(methylsulfonyl)pyridin-2-yl)-1H-pyrazole-3-carboxyamide] showed an IC50 of 65 nM. The value for `Cc1cccc(-n2nc(C(=O)Nc3ccc(S(C)(=O)=O)nc3)cc2-c2ccc3ncsc3c2)n1` [Example 69, 5-(benzo[d]thiazol-6-yl)-N-(6-(methylsulfonyl)pyridin-3-yl)-1-(6-methylpyridin-2-yl)-1H-pyrazole-3-carboxyamide] was 4.9 nM.

`Cc1cccc(-n2nc(C(=O)Nc3ccnc(S(C)(=O)=O)c3)cc2-c2ccc3ncsc3c2)n1` [Example 70, 5-(benzo[d]thiazol-6-yl)-1-(6-methylpyridin-2-yl)-N-(2-(methylsulfonyl)pyridin-4-yl)-1H-pyrazole-3-carboxyamide] came in with a half-maximal inhibitory concentration (IC50) of 4.6 nM. The value for `Cc1cccc(-n2nc(C(=O)Nc3ccc(F)nc3)cc2-c2ccc3ncsc3c2)n1` [Example 71, 5-(benzo[d]thiazol-6-yl)-N-(6-fluoropyridin-3-yl)-1-(6-methylpyridin-2-yl)-1H-pyrazole-3-carboxyamide] was 8 nM; that for `Cc1cccc(-n2nc(C(=O)Nc3ccnc(F)c3)cc2-c2ccc3ncsc3c2)n1` [Example 72, 5-(benzo[d]thiazol-6-yl)-N-(2-fluoropyridin-4-yl)-1-(6-methylpyridin-2-yl)-1H-pyrazole-3-carboxyamide] was 11 nM. The value for `Cc1cccc(-n2nc(C(=O)Nc3ccc(Cl)nc3)cc2-c2ccc3ncsc3c2)n1` [Example 73, 5-(benzo[d]thiazol-6-yl)-N-(6-chloropyridin-3-yl)-1-(6-methylpyridin-2-yl)-1H-pyrazole-3-carboxyamide] was 5.8 nM; that for `Cc1cccc(-n2nc(C(=O)Nc3ccnc(Cl)c3)cc2-c2ccc3ncsc3c2)n1` [Example 74, 5-(benzo[d]thiazol-6-yl)-N-(2-chloropyridin-4-yl)-1-(6-methylpyridin-2-yl)-1H-pyrazole-3-carboxyamide] was 2.3 nM; that for `Cc1cccc(-n2nc(C(=O)Nc3nccs3)cc2-c2ccc3ncsc3c2)n1` [Example 75, 5-(benzo[d]thiazol-6-yl)-1-(6-methylpyridin-2-yl)-N-(thiazol-2-yl)-1H-pyrazole-3-carboxyamide] was 7.4 nM. The same measure for `Cc1cccc(-n2nc(C(=O)NCc3ccccc3)cc2-c2ccc3ncsc3c2)n1` [Example 76, 5-(benzo[d]thiazol-6-yl)-N-benzyl-1-(6-methylpyridin-2-yl)-1H-pyrazole-3-carboxyamide]: approximately 10 nM. `Cc1cccc(-n2nc(C(=O)NCc3ccccc3F)cc2-c2ccc3ncsc3c2)n1` [Example 77, 5-(benzo[d]thiazol-6-yl)-N-(2-fluorobenzyl)-1-(6-methylpyridin-2-yl)-1H-pyrazole-3-carboxyamide] showed an IC50 of 7.2 nM. The same measure for `Cc1cccc(-n2nc(C(=O)NCc3cccc(F)c3)cc2-c2ccc3ncsc3c2)n1` [Example 78, 5-(benzo[d]thiazol-6-yl)-N-(3-fluorobenzyl)-1-(6-methylpyridin-2-yl)-1H-pyrazole-3-carboxyamide]: 3.4 nM. The value for `Cc1cccc(-n2nc(C(=O)NCc3ccc(F)cc3)cc2-c2ccc3ncsc3c2)n1` [Example 79, 5-(benzo[d]thiazol-6-yl)-N-(4-fluorobenzyl)-1-(6-methylpyridin-2-yl)-1H-pyrazole-3-carboxyamide] was 5.6 nM.

`Cc1cccc(-n2nc(C(=O)Nc3cnn(S(C)(=O)=O)c3)cc2-c2ccc3ncsc3c2)n1` [Example 80, 5-(benzo[d]thiazol-6-yl)-1-(6-methylpyridin-2-yl)-N-(1-(methylsulfonyl)-1H-pyrazol-4-yl)-1H-pyrazole-3-carboxyamide] showed an IC50 of 1.3 nM. Compared with the last compound, the IC50 is about 4.3-fold lower. The value for `Cc1cccc(-n2nc(C(=O)Nc3cnn(S(=O)(=O)C4CC4)c3)cc2-c2ccc3ncsc3c2)n1` [Example 81, 5-(benzo[d]thiazol-6-yl)-N-(1-(cyclopropylsulfonyl)-1H-pyrazol-4-yl)-1-(6-methylpyridin-2-yl)-1H-pyrazole-3-carboxyamide] was 1.5 nM; that for `Cc1cccc(-n2nc(C(=O)Nc3cccc(O)c3)cc2-c2ccc3ncsc3c2)n1` [Example 82, 5-(benzo[d]thiazol-6-yl)-N-(3-hydroxyphenyl)-1-(6-methylpyridin-2-yl)-1H-pyrazole-3-carboxyamide] was 2.7 nM. As to `Cc1cccc(-n2nc(C(=O)Nc3ccc(O)cc3)cc2-c2ccc3ncsc3c2)n1` [Example 83, 5-(benzo[d]thiazol-6-yl)-N-(4-hydroxyphenyl)-1-(6-methylpyridin-2-yl)-1H-pyrazole-3-carboxyamide], the IC50 came out at 0.7 nM.
